Results taken from patent US4342780A, “Method of depleting endogenous monoamines” (Merrell-Toraude et Cie, priority 1981, dated 1982).

Key:
[1] = system: catecholamine content (norepinephrine, dopamine); test: Catecholamine content in organs of mice after repeated i.p. doses (Table II); format: in vivo, mice (Swiss Albino); details: three days, 12 h after 6th dose, vs control
Method: (§1) The test animals (e.g. mice or rats) are given the test compound in a suitable vehicle, either orally or by injection, each day over the period of time desired. The animals are kept on a constant time cycle, and body weights are measured daily. The animals are sacrificed by decapitation 12 to 24 hours after receiving the last dose of the test compound. Control animals receive the vehicle alone.
(§2) Immediately after death, the organs (brain, heart, and kidney) are removed and homogenized either in 50 ml phosphate buffer pH 6.8 for AADC determination or in ice-cold 0.4 M HClO4 containing 0.05% (w/v) EDTA and 0.1% (w/v) sodium bisulfite for catecholamine determination. AADC activity is determined by the ^14 CO2 trapping method of J. Christenson, supra (see Example 14) using DL-[1-^14 C]-dopa as the substrate. Catecholamines are determined by centrifuging the homogenate, adding the supernatant to alumina buffered to pH 8.0-8.4 to adsorb the catecholamines, re-extracting the catecholamines from the alumina with 0.2 M HClO4 and determining the catecholamines in the extracts using known procedures, such as by reversed-phase ion-pair HPLC with electrochemical detection.
(§3) Table II, shown below, sets forth the results obtained by testing particular compounds of Formula I in the above-described procedure in mice (Swiss Albino) after i.p. administration of the compound twice daily for three days: […]

[2] = system: catecholamine content (norepinephrine, dopamine); test: Catecholamine content in organs of rats after oral administration once daily for 15 days (Table III); format: in vivo, rats (Sprague-Dawley); details: 24 h after 15th dose, vs control; for % CHANGE Brain Dopamine: * not significant
Method: as §1, §2
Table III gives the results obtained by testing particular compounds of Formula I in rats (Sprague-Dawley) after oral administration of the test compound once daily for 15 days. AADC activity was not determined.

[3] = target: T1, AADC (Sus scrofa, UniProt P80041); test: In vitro AADC inhibition: time of 90% inactivation (14CO2 trapping, DL-[1-14C]-dopa substrate); format: biochemical, hog; parameters: key to RATING: ++++: The relative activities of the compounds are rated by the given number of "plus" signs; +++: The relative activities of the compounds are rated by the given number of "plus" signs; 0-+: The relative activities of the compounds are rated by the given number of "plus" signs; details: for TIME OF 90% INACTIVATION: pH 7.4, 37° C.; for RATING: relative activity
T1 sequence (P80041 1-486): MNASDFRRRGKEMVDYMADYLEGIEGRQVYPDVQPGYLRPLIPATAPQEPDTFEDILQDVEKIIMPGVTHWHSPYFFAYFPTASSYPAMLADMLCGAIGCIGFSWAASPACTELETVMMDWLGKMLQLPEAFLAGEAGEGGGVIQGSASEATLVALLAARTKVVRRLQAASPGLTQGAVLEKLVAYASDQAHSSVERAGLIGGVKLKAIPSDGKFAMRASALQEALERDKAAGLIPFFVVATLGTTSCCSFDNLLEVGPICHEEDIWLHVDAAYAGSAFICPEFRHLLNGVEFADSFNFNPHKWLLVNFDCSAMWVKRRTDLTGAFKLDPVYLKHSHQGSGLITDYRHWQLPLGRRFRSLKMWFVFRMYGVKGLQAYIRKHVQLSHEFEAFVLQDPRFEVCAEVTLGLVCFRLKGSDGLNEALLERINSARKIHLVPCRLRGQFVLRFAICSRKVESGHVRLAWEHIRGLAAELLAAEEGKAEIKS
Method: AADC can be purified from hog kidney by the general method of J. Christenson et al. Archs. Biochem. Biophys., 141, 356 (1970) and G. Lancaster et al., Can. J. Biochem., 50, 791 (1972), and the specific activity of the enzyme is determined by the ^14 CO2 trapping method using DL-[1-^14 C]-dopa as the substrate (see Christenson et al.). One unit of activity is defined as the total amount of enzyme which produces 1 n mol of CO2 per minute, with DL-[1-^14 C]-dopa as substrate.
To 100 μl of 50 mM-phosphate buffer pH 7.4 containing 100 mM-mercapto-ethanol are added 5 μl of an aqueous solution containing the test compound at the desired concentration and 50 μl of an aqueous solution containing 2 units of AADC. The mixture is incubated at 37° C. and 20 μl aliquots are removed at various times. The AADC activity remaining in each aliquot is measured by the CO2 trapping method of Christenson.
The relative activities of the compounds are rated by the given number of "plus" signs.

[4] = system: AADC; test: Ex vivo AADC activity in organs of mice after repeated i.p. doses (Table II); parameters: species or system mice (Swiss Albino); details: three days, 12 h after 6th dose, vs control
Method: as §1, §2, §3

[5] = Deaths in mice after repeated i.p. doses (Table II footnotes); format: in vivo, mice (Swiss Albino); details: 100 mg/kg i.p. twice daily, three days; number dead of animals
Method: as §1, §3

[6] = system: AADC; test: AADC inhibition in organs of fasted rats after a single dose; format: in vivo; details: 16 h
Method: as §1, §2
(§4) In the brain, doses of 10 mg/kg and 200 mg/kg produced a 10% reduction and a 70-80% reduction of AADC activity, respectively. […] In the heart, no reduction of norepinephrine is noted up to a dose of 200 mg/kg. When tested after multiple administration of 10, 25, or 50 mg/kg given daily for six days in rats sacrificed 24 hours after the sixth dose, the compound produced a 50% decrease in brain norephinephrine at a dose of 10 mg/kg (daily). […] Serotonin (5-HT) levels, as assessed by standard techniques, are not altered in the brain even at the highest dose tested. Heart norepinephrine is reduced by only 20% at the highest dose.

[7] = system: endogenous catecholamine and 5-HT levels; test: Effect on endogenous catecholamine and 5-HT levels in brain and heart (general statement); format: in vivo
[8] = system: catecholamine levels (norepinephrine, dopamine) and serotonin (5-HT); test: Catecholamine and serotonin levels in organs of rats after daily doses for six days; format: in vivo
Method: as §1, §2, §4

[9] = system: catecholamine levels (norepinephrine, dopamine); test: Catecholamine levels in organs of fasted rats after a single dose; format: in vivo; details: 16 h
Method: as §1, §2, §4

[10] = system: catecholamine levels (dopamine, noradrenaline); test: Effect of dopamine injection on catecholamine levels in heart and brain of mice treated with test compound (Table VI); format: in vivo, Male albino mice
Method: Saline solution is used as a control. The mice are sacrificed and the catecholamines, dopamine and noradrenaline, and serotonin (5-hydroxytryptamine) are determined by reverse-phase ion-pair high pressure liquid chromatography using electrochemical detection. […] Twelve hours after the second dose, one group of animals received an i.p. injection of 50 mg/kg of dopamine-HCl (Sigma, Chem. Co), the other group received saline instead. Three hours after the dopamine injection, the animals were killed and catecholamines were measured in heart and brain as described in Example 18.

[11] = 10 mg/kg i.p. twice daily, * not significant
[12] = 10 mg/kg i.p. twice daily, * not significant (-25*, -7*)
[13] = 10 mg/kg i.p. twice daily, * not significant (-25*, -9*)
[14] = 100 mg/kg i.p. twice daily, * not significant (-35*)
[15] = 10 mg/kg oral once daily 15 days
[16] = 20 mg/kg oral once daily 15 days
[17] = 30 mg/kg oral once daily 15 days

SMILES	% CHANGE NOREPINEPHRINE Brain [1, 11] [%]	% CHANGE NOREPINEPHRINE Heart [1, 12] [%]	% CHANGE DOPAMINE Brain [1, 13] [%]	% CHANGE NOREPINEPHRINE Brain ([1]; 100 mg/kg i.p. twice daily) [%]	% CHANGE NOREPINEPHRINE Heart ([1]; 100 mg/kg i.p. twice daily) [%]	% CHANGE DOPAMINE Brain [1, 14] [%]	% CHANGE Brain Norepinephrine [2, 15] [%]	% CHANGE Heart Norepinephrine [2, 15] [%]	% CHANGE Brain Dopamine [2, 15] [%]	% CHANGE Brain Norepinephrine [2, 16] [%]	% CHANGE Heart Norepinephrine [2, 16] [%]	% CHANGE Brain Dopamine [2, 16]	% CHANGE Brain Norepinephrine [2, 17] [%]	% CHANGE Heart Norepinephrine [2, 17] [%]	% CHANGE Brain Dopamine [2, 17] [%]	TIME OF 90% INACTIVATION ([3]; CONC. 10 μM) [min]	% CHANGE AADC Brain ([4]; 10 mg/kg i.p. twice daily) [%]	% CHANGE AADC Kidney ([4]; 10 mg/kg i.p. twice daily) [%]	% CHANGE AADC Brain ([4]; 100 mg/kg i.p. twice daily) [%]	% CHANGE AADC Kidney ([4]; 100 mg/kg i.p. twice daily) [%]	other results
NC(CF)(Cc1cccc(O)c1O)C(=O)O (stereo not drawn) [2,3-diOH-phenyl, 2-Amino-2-fluoromethyl-3-(2,3-dihydroxyphenyl)propionic acid]	-33	-33	-25	-90	-90	-93	-11	-38	0	-17	-48	+3%	-27	-79	-10	1 to 2	-73	-90	-99	-90	RATING ([3]; CONC. 10 μM): ++++
NC(CF)(Cc1cc(O)ccc1O)C(=O)O (stereo not drawn) [2,5-diOH-phenyl, 2-Amino-2-fluoromethyl-3-(2,5-dihydroxyphenyl)propionic acid]	0	-25	0	-90	-76	90	-16	-31	-1	-32	-38	-2%	-37	-53	-5	3	-58	-78	-99	-87	RATING ([3]; CONC. 10 μM): ++++
Cc1cccc(CC(N)(CF)C(=O)O)c1O (stereo not drawn) [2-OH3-methyl phenyl, 2-Amino-2-fluoromethyl-3-(2-hydroxy-3-methylphenyl)propionic acid]	-27	-41	-20	-47	-68	-24	–	–	–	–	–	–	–	–	–	–	-52	-84	-94	-98	dead [5]: 1/5; TIME OF 90% INACTIVATION ([3]; CONC. 100 μM): 1 min; RATING ([3]; CONC. 100 μM): +++
NC(CF)(Cc1cccc(O)c1)C(=O)O (stereo not drawn) [Example 3-OH-phenyl, 2-Amino-2-fluoromethyl-3-(3-hydroxyphenyl)propionic acid]	-34	0	0	-77	-49	-75	–	–	–	–	–	–	–	–	–	–	-80	-78	-95	-96	TIME OF 90% INACTIVATION ([3]; CONC. 100 μM): 4 min; RATING ([3]; CONC. 100 μM): +++
COC(=O)C(N)(CF)Cc1ccc(O)cc1 (stereo not drawn) [Methyl 2-amino-2-fluoromethyl-3-(4-hydroxyphenyl)propionate]	–	–	–	–	–	–	–	–	–	–	–	–	–	–	–	–	–	–	–	–	reduction of AADC activity in the brain ([6]; 10 mg/kg single dose): 10%; AADC activity in kidney, liver, and adrenals ([6]; 50 mg/kg single dose): marked decrease; AADC inhibition in kidney, liver, and adrenals ([6]; 100 mg/kg single dose): Complete inhibition; reduction of AADC activity in the brain ([6]; 200 mg/kg single dose): 70-80%; AADC activity in the heart ([6]; up to 200 mg/kg single dose): not reduced significantly; endogenous 5-HT levels in the brain [7]: not altered; endogenous catecholamine levels in brain and heart [7]: lower engenous catecholamine levels in the brain but not in the heart; decrease in brain norepinephrine ([8]; 10 mg/kg daily for six days, 24 h after sixth dose): 50%; Brain dopamine decrease ([8]; 50 mg/kg daily for six days, 24 h after sixth dose): 50%; decrease in brain norepinephrine, response at higher doses ([8]; 25 or 50 mg/kg daily for six days (above 10 mg/kg), 24 h after sixth dose): do not give an additional response; Brain dopamine, effect at lower doses ([8]; below 50 mg/kg (10, 25) daily for six days, 24 h after sixth dose): no significant effect; Serotonin (5-HT) levels in the brain ([8]; even at the highest dose tested, daily for six days): not altered; Heart norepinephrine reduction ([8]; highest dose (50 mg/kg) daily for six days, 24 h after sixth dose): 20%; Brain norepinephrine decrease ([9]; 10 mg/kg single dose): 15-20%; dopamine decrease (brain) ([9]; 50 mg/kg single dose): decreased significantly; Brain norepinephrine decrease ([9]; 200 mg/kg single dose): 50%; dopamine decrease (brain) ([9]; 200 mg/kg single dose): 75%; reduction of norepinephrine in the heart ([9]; up to 200 mg/kg single dose): no reduction
NCCc1ccc(O)c(O)c1 [dopamine, reference compound]	–	–	–	–	–	–	–	–	–	–	–	–	–	–	–	–	–	–	–	–	depletion of noradrenaline in the heart achieved by the test-compound ([10]; effect of dopamine injection 50 mg/kg i.p.): reversed totally; depletion of amines in the central nervous system ([10]; effect of exogenous dopamine 50 mg/kg i.p.): not affected
